Data on 6 molecules can be found in ChEMBL document CHEMBL3132769, “Fragment growing to retain or alter the selectivity of anchored kinase hinge-binding fragments” (Medchemcomm, 2014).

Assay [1] deals with Tyrosine-protein kinase ABL1 (Homo sapiens), P00519 [H396P]. Put plainly: Inhibition of human truncated ABL H396P mutant expressed in baculovirus assessed as substrate phosphorylation using fluorescence-labelled peptides as substrate at 0.1 uM after 90 mins by microfluidic peptide phosphorylation assay.
Assay [2] addresses Dual specificity tyrosine-phosphorylation-regulated kinase 1A (Rattus norvegicus) (UniProt Q63470). Put plainly: Inhibition of rat full length DYRK1a expressed in Escherichia coli cell assessed as substrate phosphorylation using fluorescence-labelled peptides as substrate at 420 uM after 90 mins by microfluidic peptide phosphorylation assay.
Assay [3] concerns the target T1, Testis-specific serine/threonine-protein kinase 2 (Homo sapiens) (UniProt Q96PF2).
T1 sequence (whole entry): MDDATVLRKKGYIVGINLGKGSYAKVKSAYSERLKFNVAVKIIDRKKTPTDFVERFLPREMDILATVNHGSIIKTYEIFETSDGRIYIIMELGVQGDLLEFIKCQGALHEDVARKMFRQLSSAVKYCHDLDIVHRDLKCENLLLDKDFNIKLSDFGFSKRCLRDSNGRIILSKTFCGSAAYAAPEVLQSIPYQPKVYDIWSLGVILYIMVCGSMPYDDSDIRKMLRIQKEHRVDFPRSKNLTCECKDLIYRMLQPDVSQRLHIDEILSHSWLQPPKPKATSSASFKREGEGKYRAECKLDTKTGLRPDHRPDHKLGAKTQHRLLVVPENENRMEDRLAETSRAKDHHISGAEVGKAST
Put plainly: Inhibition of human full length TSSK2 expressed in baculovirus assessed as substrate phosphorylation using fluorescence-labelled peptides as substrate at 420 uM after 90 mins by microfluidic peptide phosphorylation assay.

Assay [4] deals with Insulin-like growth factor 1 receptor (Homo sapiens) (UniProt P08069). Put plainly: Inhibition of human IGF1R catalytic domain expressed in baculovirus assessed as substrate phosphorylation using fluorescence-labelled peptides as substrate at 95 uM after 90 mins by microfluidic peptide phosphorylation assay.
Assay [5] addresses MAP/microtubule affinity-regulating kinase 3 (Homo sapiens) (UniProt P27448). Kind of assay: Inhibition of human full length c-TAK1 expressed in Escherichia coli cell assessed as substrate phosphorylation using fluorescence-labelled peptides as substrate at 95 uM after 90 mins by microfluidic peptide phosphorylation assay.
Assay [6] addresses T2, Serine/threonine-protein kinase DCLK2 (Homo sapiens) (UniProt Q8N568).
T2 sequence (whole entry): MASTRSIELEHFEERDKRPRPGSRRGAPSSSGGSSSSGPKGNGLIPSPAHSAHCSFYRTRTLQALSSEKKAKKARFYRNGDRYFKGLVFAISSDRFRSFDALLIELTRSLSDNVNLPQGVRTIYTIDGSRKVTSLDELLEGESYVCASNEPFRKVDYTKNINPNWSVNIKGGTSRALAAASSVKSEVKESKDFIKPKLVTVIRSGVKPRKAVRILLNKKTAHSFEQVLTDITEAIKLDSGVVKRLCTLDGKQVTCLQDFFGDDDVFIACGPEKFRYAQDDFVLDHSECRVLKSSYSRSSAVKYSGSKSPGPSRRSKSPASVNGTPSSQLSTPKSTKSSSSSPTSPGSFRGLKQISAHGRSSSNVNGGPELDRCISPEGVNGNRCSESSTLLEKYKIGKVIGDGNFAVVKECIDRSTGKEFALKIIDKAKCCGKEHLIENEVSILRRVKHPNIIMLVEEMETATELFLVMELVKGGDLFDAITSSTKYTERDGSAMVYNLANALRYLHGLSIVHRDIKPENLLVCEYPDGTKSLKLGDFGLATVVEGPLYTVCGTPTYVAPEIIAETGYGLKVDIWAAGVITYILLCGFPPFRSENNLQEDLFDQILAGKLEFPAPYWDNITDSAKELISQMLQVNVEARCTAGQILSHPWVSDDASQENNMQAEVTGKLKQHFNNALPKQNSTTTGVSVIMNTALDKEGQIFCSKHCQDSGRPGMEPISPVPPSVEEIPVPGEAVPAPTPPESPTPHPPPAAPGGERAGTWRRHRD
Put plainly: Inhibition of human full length DCAMKL2 expressed in baculovirus assessed as substrate phosphorylation using fluorescence-labelled peptides as substrate at 8 uM after 90 mins by microfluidic peptide phosphorylation assay.

In assay [7] the target is T3, Interleukin-1 receptor-associated kinase 4 (Homo sapiens) (UniProt Q9NWZ3).
T3 sequence (whole entry): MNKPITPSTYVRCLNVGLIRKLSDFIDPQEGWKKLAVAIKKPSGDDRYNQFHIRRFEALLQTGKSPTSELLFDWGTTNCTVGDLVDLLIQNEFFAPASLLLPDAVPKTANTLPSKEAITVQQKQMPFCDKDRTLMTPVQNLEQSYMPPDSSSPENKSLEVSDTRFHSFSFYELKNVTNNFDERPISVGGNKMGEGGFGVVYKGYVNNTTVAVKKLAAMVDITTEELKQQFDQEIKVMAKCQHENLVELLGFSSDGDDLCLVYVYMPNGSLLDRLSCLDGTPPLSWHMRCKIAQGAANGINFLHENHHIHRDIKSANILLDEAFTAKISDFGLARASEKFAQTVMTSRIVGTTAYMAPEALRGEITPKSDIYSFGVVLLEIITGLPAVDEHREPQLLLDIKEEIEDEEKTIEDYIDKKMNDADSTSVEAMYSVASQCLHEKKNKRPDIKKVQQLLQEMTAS
Kind of assay: Inhibition of human IRAK4 catalytic domain expressed in baculovirus assessed as substrate phosphorylation using fluorescence-labelled peptides as substrate at […] after 90 mins by microfluidic peptide phosphorylation assay.

Assay [8] addresses T4, Calcium/calmodulin-dependent protein kinase type IV (Homo sapiens) (UniProt Q16566).
T4 sequence (whole entry): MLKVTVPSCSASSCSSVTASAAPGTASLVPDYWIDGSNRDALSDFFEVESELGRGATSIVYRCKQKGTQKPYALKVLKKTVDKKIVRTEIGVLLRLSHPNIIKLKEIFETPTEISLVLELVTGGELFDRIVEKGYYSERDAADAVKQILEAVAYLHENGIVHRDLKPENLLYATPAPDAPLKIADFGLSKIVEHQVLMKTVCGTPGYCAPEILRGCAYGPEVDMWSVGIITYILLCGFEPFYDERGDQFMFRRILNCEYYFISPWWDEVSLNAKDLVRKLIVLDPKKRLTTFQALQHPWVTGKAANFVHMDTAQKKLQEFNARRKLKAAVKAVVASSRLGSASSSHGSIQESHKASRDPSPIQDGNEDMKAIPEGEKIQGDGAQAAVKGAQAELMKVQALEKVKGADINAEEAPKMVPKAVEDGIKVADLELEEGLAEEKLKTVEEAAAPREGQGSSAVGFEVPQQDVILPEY
Kind of assay: Inhibition of human full length CAMK4 expressed in baculovirus assessed as substrate phosphorylation using fluorescence-labelled peptides as substrate at […] after 90 mins by microfluidic peptide phosphorylation assay.

The target in assay [9] is Fibroblast growth factor receptor 4 (Homo sapiens) (UniProt P22455). Put plainly: Inhibition of human FGFR4 catalytic domain expressed in baculovirus assessed as substrate phosphorylation using fluorescence-labelled peptides as substrate at 70 uM after 90 mins by microfluidic peptide phosphorylation assay.
Chain of Fibroblast growth factor receptor 4 (Homo sapiens) (P22455 22-802 limits assumed): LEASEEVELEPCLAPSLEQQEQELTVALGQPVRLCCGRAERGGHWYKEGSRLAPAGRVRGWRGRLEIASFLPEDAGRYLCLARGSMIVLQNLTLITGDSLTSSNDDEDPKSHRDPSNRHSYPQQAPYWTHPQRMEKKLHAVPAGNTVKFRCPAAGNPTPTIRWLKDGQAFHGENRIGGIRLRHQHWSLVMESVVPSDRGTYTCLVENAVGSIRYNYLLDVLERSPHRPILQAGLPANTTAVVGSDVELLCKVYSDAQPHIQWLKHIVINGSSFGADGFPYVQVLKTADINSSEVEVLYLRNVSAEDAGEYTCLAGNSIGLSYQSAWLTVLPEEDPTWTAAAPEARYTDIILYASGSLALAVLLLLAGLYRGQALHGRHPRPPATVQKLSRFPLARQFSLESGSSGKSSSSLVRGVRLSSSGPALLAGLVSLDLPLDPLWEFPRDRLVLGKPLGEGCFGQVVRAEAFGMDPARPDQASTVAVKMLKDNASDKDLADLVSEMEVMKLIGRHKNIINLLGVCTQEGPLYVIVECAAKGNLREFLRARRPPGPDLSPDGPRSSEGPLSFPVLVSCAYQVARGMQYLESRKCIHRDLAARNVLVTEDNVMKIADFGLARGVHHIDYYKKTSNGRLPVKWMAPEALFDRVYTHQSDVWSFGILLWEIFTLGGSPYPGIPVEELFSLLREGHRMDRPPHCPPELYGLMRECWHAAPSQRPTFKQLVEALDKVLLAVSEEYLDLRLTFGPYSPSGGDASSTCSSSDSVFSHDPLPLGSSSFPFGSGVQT
Assay [10] concerns the target Rho-associated protein kinase 2 (Homo sapiens) (UniProt O75116). Put plainly: Inhibition of human ROCK2 catalytic domain expressed in baculovirus assessed as substrate phosphorylation using fluorescence-labelled peptides as substrate at 70 uM after 90 mins by microfluidic peptide phosphorylation assay.

Chain of MAP/microtubule affinity-regulating kinase 3 (Homo sapiens) (P27448 whole entry, looked up): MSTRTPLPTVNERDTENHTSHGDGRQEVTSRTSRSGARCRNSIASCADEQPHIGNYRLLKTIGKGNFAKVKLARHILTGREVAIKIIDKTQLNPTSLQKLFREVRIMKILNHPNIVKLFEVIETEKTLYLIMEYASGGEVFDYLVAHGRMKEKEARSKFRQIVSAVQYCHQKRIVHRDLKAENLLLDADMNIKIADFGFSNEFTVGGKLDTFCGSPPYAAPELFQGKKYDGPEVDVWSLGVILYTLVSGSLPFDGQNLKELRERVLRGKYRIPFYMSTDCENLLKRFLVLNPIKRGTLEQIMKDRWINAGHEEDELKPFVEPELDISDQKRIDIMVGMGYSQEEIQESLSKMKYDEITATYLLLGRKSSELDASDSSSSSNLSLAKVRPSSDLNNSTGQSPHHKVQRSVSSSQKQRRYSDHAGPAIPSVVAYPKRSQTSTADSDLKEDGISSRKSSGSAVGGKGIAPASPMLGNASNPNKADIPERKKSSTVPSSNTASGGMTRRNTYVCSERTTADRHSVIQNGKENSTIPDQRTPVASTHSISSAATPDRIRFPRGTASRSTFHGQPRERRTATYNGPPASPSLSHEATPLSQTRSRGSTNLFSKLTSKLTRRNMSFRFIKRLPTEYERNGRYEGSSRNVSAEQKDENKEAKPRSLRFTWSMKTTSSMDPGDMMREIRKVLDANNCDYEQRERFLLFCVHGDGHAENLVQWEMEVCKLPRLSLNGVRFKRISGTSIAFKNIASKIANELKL
Chain of Rho-associated protein kinase 2 (Homo sapiens) (O75116 whole entry, looked up, the tested form may be a part): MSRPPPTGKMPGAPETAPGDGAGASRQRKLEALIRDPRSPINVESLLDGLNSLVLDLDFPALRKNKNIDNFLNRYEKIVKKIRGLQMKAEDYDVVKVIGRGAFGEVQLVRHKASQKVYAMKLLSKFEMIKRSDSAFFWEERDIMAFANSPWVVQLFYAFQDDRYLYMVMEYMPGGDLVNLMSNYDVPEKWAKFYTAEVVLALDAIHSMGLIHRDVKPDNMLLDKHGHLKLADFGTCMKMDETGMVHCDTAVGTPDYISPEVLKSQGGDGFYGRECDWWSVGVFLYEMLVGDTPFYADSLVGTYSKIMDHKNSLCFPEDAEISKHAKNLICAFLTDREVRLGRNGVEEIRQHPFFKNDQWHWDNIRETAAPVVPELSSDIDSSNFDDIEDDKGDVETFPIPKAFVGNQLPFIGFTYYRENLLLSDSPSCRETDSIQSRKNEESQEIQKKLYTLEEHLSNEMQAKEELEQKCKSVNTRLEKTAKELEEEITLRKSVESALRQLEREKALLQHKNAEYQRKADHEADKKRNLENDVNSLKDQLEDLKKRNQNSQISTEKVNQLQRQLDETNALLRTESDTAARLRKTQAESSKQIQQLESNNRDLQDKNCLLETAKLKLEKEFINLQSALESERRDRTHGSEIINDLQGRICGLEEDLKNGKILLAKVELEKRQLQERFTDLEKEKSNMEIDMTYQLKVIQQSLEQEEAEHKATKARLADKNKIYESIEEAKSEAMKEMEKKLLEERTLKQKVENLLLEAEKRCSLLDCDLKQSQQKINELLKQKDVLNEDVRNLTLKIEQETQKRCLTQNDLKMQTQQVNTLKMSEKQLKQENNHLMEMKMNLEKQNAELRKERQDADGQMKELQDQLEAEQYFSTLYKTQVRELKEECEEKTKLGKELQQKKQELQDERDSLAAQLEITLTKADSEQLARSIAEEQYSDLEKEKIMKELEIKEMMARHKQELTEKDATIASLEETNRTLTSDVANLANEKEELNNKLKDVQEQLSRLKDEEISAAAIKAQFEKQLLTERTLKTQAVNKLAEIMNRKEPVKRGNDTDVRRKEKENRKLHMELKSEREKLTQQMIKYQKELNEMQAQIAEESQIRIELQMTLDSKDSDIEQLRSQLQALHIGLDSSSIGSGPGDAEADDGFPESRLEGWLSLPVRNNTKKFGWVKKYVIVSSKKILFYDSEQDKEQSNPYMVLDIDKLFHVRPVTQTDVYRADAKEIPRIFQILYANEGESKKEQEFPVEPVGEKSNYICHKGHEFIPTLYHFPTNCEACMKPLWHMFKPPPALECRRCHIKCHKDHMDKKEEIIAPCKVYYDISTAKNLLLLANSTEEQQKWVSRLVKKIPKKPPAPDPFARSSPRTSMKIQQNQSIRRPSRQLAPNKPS

For `C[C@H](CN(C)C)Oc1nc(Nc2cc3cccc(Cl)c3cn2)cnc1C#N`, in assay [1], the inhibition – broadly, the share of the control response that was lost under treatment – came out at 1.5%.

Turning to `c1nc(N2CCOCC2)c2nc[nH]c2n1`, the inhibition in assay [2] was found to be 77%; in [3], 24.5%. Turning to `NCCc1ccc(-c2ncnc3[nH]cnc23)cc1`, the inhibition in assay [4] is 20.5%; in assay [5], 18%.

Take `NCC1CCN(c2ncnc3[nH]ccc23)CC1`: the inhibition in assay [6] was 21%. On to `COC(=O)c1cnc(Nc2cnc(C#N)cn2)cc1NCC1CCNCC1`, for which the inhibition in [7] was found to be 5.5%; in assay [8], 0.5%. Turning to `CNCc1ccc(-c2ncnc3[nH]cnc23)cc1`, the inhibition was 11.5% in assay [9] and 88.5% in assay [10].
